Test results as given in US12633373B2, “Systems and methods to predict structures and properties of biomolecule-ligand complexes and uses thereof” (The Board of Trustees of the Leland Stanford Junior …, priority 2020, dated 2026).

Key:
[1] = test system: D2 dopamine receptor (D2R) S193 mutants (Val, Leu, Ala); test: Mutagenesis of Ser193 (S193) of D2R, ligand affinity; type: binding; conditions: S193 mutated to a larger residue (Val or Leu)
Description: (§1) To test the embodiment's predictions, mutagenesis experiments were designed.

[2] = molecular target: D2 dopamine receptor (D2R) S193 mutants (Val, Leu, Ala) (Homo sapiens, UniProt P14416, S193A); test: as above; type: binding; conditions: S193 mutated to a smaller residue (Ala)
Description: as §1

[3] = test system: D2 dopamine receptor (D2R) Val91 and Trp100 mutants; test: Mutagenesis of Val91 and Trp100 of D2R, ligand affinity; conditions: mutation of Val91 and Trp100, top of the ligand binding pocket
Description: Mutations to several residues surrounding the top and bottom of the binding pocket were also considered. Unlike Glide, the embodiment predicts that all four ligands will position a fluorobenzene ring at the bottom of the binding pocket, packing favorably against Trp386 (W386). […] At the top of the ligand binding pocket, near Val91 and Trp100, the embodiment predicts that the pimozide and benperidol will place identical functional groups that differ somewhat from those of spiperone and mespiperone.

Chain of D2 dopamine receptor (D2R) S193 mutants (Val, Leu, Ala) (Homo sapiens, UniProt P14416, S193A) (P14416 whole entry S193A): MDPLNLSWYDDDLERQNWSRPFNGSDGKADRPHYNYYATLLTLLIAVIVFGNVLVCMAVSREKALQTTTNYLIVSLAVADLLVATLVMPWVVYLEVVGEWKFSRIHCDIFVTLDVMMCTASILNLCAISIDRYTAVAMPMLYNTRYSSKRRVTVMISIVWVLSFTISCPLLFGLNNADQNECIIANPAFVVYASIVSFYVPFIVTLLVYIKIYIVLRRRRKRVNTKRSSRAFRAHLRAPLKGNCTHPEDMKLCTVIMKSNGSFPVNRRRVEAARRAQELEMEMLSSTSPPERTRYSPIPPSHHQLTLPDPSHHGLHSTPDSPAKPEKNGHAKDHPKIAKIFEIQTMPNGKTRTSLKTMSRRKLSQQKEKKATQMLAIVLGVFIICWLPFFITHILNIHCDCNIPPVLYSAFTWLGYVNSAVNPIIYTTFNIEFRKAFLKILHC

O=C(CCCN1CCC(n2c(O)nc3ccccc32)CC1)c1ccc(F)cc1 [benperidol]
change of affinity on mutation [1]: increases | change of affinity on mutation [2]: not observed | effect of mutation on ligand [3]: slightly differently from spiperone and mespiperone
